From paper PMC12495306 (RSC Medicinal Chemistry, 2025)

How the values were obtained:
[1] = biological target: T1, ARα2B (Homo sapiens, UniProt P18089); experiment: ARα2B radioligand; assay type: binding; conditions: for inhibition at 10 µM: read-out: ARα2B binding (% inhibition at 10 μM)
T1 sequence (P18089 1-450): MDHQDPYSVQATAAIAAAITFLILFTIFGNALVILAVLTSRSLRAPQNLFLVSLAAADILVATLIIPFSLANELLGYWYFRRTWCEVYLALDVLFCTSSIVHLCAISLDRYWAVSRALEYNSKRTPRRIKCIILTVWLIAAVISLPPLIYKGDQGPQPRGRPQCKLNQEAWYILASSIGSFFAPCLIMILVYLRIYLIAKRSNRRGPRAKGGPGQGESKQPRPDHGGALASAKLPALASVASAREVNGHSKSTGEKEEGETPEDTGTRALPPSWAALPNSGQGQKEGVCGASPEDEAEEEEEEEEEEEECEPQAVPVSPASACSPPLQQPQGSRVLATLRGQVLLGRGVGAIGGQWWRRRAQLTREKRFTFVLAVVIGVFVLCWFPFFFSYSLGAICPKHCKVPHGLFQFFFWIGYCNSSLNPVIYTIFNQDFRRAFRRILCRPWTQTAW

[2] = system: HEK293 cells; experiment: Cell viability / cytotoxicity assay; assay type: cell-based, human; conditions: CellTiter-Glo, 18 h

Compound: CC1N=C(c2ccccc2F)c2cc(N(C)c3ccccc3)ccc2NC1=O (stereo not drawn) [Compound 21, 5-(2-Fluorophenyl)-7-(N-methylanilino)-3-methyl-1,3-dihydro-2H-1,4-benzodiazepin-2-one]
- inhibition at 10 µM [1]: 47%
- Cytotoxicity LD50 [2]: 158 ± 27 µM

Compound: CC1N=C(c2ccccc2F)c2cc(NC3CCCCC3)ccc2NC1=O (stereo not drawn) [Compound 26, 7-(Cyclohexylamino)-5-(2-fluorophenyl)-3-methyl-1,3-dihydro-2H-1,4-benzodiazepin-2-one]
- inhibition at 10 µM [1]: 64%
- Cytotoxicity LD50 [2]: >300 µM

Compound: C[C@H]1N=C(c2ccccc2F)c2cc(Br)ccc2NC1=O [Compound 1, (3R)-7-Bromo-5-(2-fluorophenyl)-3-methyl-1,3-dihydro-2H-1,4-benzodiazepin-2-one]
- inhibition at 10 µM [1]: -6%
- Cytotoxicity LD50 [2]: >300 µM

Compound: Cc1ccc(Nc2ccc3c(c2)C(c2ccccc2F)=NC(C)C(=O)N3)c(C)c1 (stereo not drawn) [Compound 20, 5-(2-Fluorophenyl)-7-(2,4-dimethylanilino)-3-methyl-1,3-dihydro-2H-1,4-benzodiazepin-2-one]
- inhibition at 10 µM [1]: 33%
- Cytotoxicity LD50 [2]: 88 ± 22 µM

Compound: CC1N=C(c2ccccc2F)c2cc(Nc3ccccc3C#N)ccc2NC1=O (stereo not drawn) [Compound 13, 7-(2-Cyanoanilino)-5-(2-fluorophenyl)-3-methyl-1,3-dihydro-2H-1,4-benzodiazepin-2-one]
- inhibition at 10 µM [1]: 29%
- Cytotoxicity LD50 [2]: >150 µM

Compound: CC1N=C(c2ccccc2F)c2cc(Nc3ccc(S(C)(=O)=O)cc3)ccc2NC1=O (stereo not drawn) [Compound 8, 5-(2-Fluorophenyl)-7-(4-methanesulfonylanilino)-3-methyl-1,3-dihydro-2H-1,4-benzodiazepin-2-one]
- inhibition at 10 µM [1]: -5%
- Cytotoxicity LD50 [2]: >150 µM

Compound: CC1N=C(c2ccccc2F)c2cc(Nc3cccc(C#N)c3)ccc2NC1=O (stereo not drawn) [Compound 19, 7-(3-Cyanoanilino)-5-(2-fluorophenyl)-3-methyl-1,3-dihydro-2H-1,4-benzodiazepin-2-one]
- Ki [1]: 3.25 µM
- inhibition at 10 µM [1]: 57%
- Cytotoxicity LD50 [2]: 165 ± 27 µM

Compound: CC1N=C(c2ccccc2F)c2cc(NCc3ccccc3)ccc2NC1=O (stereo not drawn) [Compound 24, 7-(Benzylamino)-5-(2-fluorophenyl)-3-methyl-1,3-dihydro-2H-1,4-benzodiazepin-2-one]
- inhibition at 10 µM [1]: 46%
- Cytotoxicity LD50 [2]: >150 µM

Compound: CC1N=C(c2ccccc2F)c2cc(N3CCOCC3)ccc2NC1=O (stereo not drawn) [Compound 22, 5-(2-Fluorophenyl)-3-methyl-7-(morpholin-4-yl)-1,3-dihydro-2H-1,4-benzodiazepin-2-one]
- inhibition at 10 µM [1]: 27%
- Cytotoxicity LD50 [2]: >300 µM

Compound: CCc1ccccc1Nc1ccc2c(c1)C(c1ccccc1F)=NC(C)C(=O)N2 (stereo not drawn) [Compound 16, 7-(2-Ethylanilino)-5-(2-fluorophenyl)-3-methyl-1,3-dihydro-2H-1,4-benzodiazepin-2-one]
- inhibition at 10 µM [1]: -2%
- Cytotoxicity LD50 [2]: >300 µM

Compound: CC1N=C(c2ccccc2F)c2cc(N3CCCCC3)ccc2NC1=O (stereo not drawn) [Compound 23, 5-(2-Fluorophenyl)-3-methyl-7-(piperidin-1-yl)-1,3-dihydro-2H-1,4-benzodiazepin-2-one]
- inhibition at 10 µM [1]: 61%
- Cytotoxicity LD50 [2]: >300 µM

Compound: CC1N=C(c2ccccc2F)c2cc(N(C)C)ccc2NC1=O (stereo not drawn) [Compound 27, 7-(Dimethylamino)-5-(2-fluorophenyl)-3-methyl-1,3-dihydro-2H-1,4-benzodiazepin-2-one]
- inhibition at 10 µM [1]: 45%
- Cytotoxicity LD50 [2]: >300 µM

Compound: CC1N=C(c2ccccc2F)c2cc(Nc3ccc(C#N)cc3)ccc2NC1=O (stereo not drawn) [Compound 9, 7-(4-Cyanoanilino)-5-(2-fluorophenyl)-3-methyl-1,3-dihydro-2H-1,4-benzodiazepin-2-one]
- inhibition at 10 µM [1]: 23%
- Cytotoxicity LD50 [2]: 83 ± 29 µM
